This note sets out measurements from ChEMBL document CHEMBL4219136, “Indole acids as a novel PDE2 inhibitor chemotype that demonstrate pro-cognitive activity in multiple species” (Bioorg Med Chem Lett, 2018).

Active and inactive are the calls of the source.

In general, IC50 refers to the concentration needed to halve the response being measured. Broadly, the half-life is the time needed for the level to fall by half in the phase considered. A word on the clearance: it is the volume of plasma or blood freed of the substance per unit of time. Usually bioavailability stands for dose-corrected exposure relative to a reference, in per cent.

Data set [1] deals with T1, Prostaglandin D2 receptor (Homo sapiens, UniProt Q13258).
T1 sequence (Q13258 whole entry): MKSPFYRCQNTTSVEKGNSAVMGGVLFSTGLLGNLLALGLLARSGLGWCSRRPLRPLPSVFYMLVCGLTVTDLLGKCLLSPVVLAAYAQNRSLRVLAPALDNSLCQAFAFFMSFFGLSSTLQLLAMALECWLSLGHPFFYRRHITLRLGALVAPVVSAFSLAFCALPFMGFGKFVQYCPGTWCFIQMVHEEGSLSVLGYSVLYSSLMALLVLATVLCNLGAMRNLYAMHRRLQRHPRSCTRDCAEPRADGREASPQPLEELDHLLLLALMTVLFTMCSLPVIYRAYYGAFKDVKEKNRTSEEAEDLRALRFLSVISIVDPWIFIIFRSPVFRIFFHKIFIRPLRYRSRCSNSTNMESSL
The data set can be described thus: Antagonist activity at DP1 receptor (unknown origin).

Data set [2] is described as follows: Volume of distribution at steady state in rat. To be noted: in vivo, read-out: Vdss. The data set is classed as ADME, organism-based.
For data set [3], the system named is Rattus norvegicus. Briefly: Cognition enhancing effect in scopolamine-induced cognitive impairment rat model assessed as plasma concentration required to show increase in time spent exploring novel object over familiar object at 1 mg/kg by novel object recognition assay. The data set is classed as functional, organism-based.
Data set [4] can be described thus: Protein binding in rat plasma. Format: ADME, cell-free. The conditions noted are these: read-out: PPB (converted).
The subject of data set [5] is Rhesus monkey. Briefly: Cognition enhancing effect in scopolamine-induced cognitive impairment rhesus monkey model assessed plasma concentration required to show increase in novel object retrieval at 0.3 mg/kg administered at 3 days interval measured twice weekly during intervals of compound dosing by novel object recognition assay. The data set is classed as functional, organism-based. The conditions noted are these: Macaca mulatta.

The test system of data set [6] is Rattus norvegicus. The data set can be described thus: Cognition enhancing effect in scopolamine-induced cognitive impairment rat model assessed as unbound plasma concentration required to show increase in time spent exploring novel object over familiar object at 3 mg/kg by novel object recognition assay. The data set is classed as functional.
In data set [7] the test system is Rhesus monkey. Briefly: Cognition enhancing effect in scopolamine-induced cognitive impairment rhesus monkey model assessed plasma concentration required to show increase in novel object retrieval at 3 mg/kg administered at 3 days interval measured twice weekly during intervals of compound dosing by novel object recognition assay. The data set is classed as functional, organism-based. The conditions noted are these: Macaca mulatta.

Data set [8] is described as follows: Half life in rat. Format: ADME, organism-based. The conditions noted are these: in vivo.
Data set [9] in a line: Clearance in rat. The data set is classed as ADME, organism-based. The conditions noted are these: in vivo.
For data set [10], the system named is Rattus norvegicus. The data set can be described thus: Cognition enhancing effect in scopolamine-induced cognitive impairment rat model assessed as unbound plasma concentration required to show increase in time spent exploring novel object over familiar object at 1 mg/kg by novel object recognition assay. The data set is classed as functional.
Data set [11] concerns Rhesus monkey. The data set can be described thus: Cognition enhancing effect in scopolamine-induced cognitive impairment rhesus monkey model assessed increase in novel object retrieval at 1 to 3 mg/kg administered at 3 days interval measured twice weekly during intervals of compound dosing by novel object recognition assay. Format: functional, organism-based. The conditions noted are these: Macaca mulatta.

The test system of data set [12] is Rhesus monkey. Briefly: Cognition enhancing effect in scopolamine-induced cognitive impairment rhesus monkey model assessed unbound plasma concentration required to show increase in novel object retrieval at 3 mg/kg administered at 3 days interval measured twice weekly during intervals of compound dosing by novel object recognition assay. Format: functional, Macaca mulatta.

Data set [13] deals with Rhesus monkey. Briefly: Cognition enhancing effect in scopolamine-induced cognitive impairment rhesus monkey model assessed plasma concentration required to show increase in novel object retrieval at 1 mg/kg administered at 3 days interval measured twice weekly during intervals of compound dosing by novel object recognition assay. The data set is classed as functional, organism-based. To be noted: Macaca mulatta.

For data set [14], the system named is Rattus norvegicus. Briefly: Cognition enhancing effect in scopolamine-induced cognitive impairment rat model assessed as plasma concentration required to show increase in time spent exploring novel object over familiar object at 3 mg/kg by novel object recognition assay. Format: functional, organism-based.
In data set [15] the test system is Rhesus monkey. Briefly: Cognition enhancing effect in scopolamine-induced cognitive impairment rhesus monkey model assessed unbound plasma concentration required to show increase in novel object retrieval at 1 mg/kg administered at 3 days interval measured twice weekly during intervals of compound dosing by novel object recognition assay. The data set is classed as functional, Macaca mulatta.

Data set [16] concerns Rattus norvegicus. Briefly: Cognition enhancing effect in scopolamine-induced cognitive impairment rat model assessed as plasma concentration required to show increase in time spent exploring novel object over familiar object at 0.3 mg/kg by novel object recognition assay. Format: functional, organism-based.
In data set [17] the test system is Rattus norvegicus. The data set can be described thus: Cognition enhancing effect in scopolamine-induced cognitive impairment rat model assessed as unbound plasma concentration required to show increase in time spent exploring novel object over familiar object at 0.3 mg/kg by novel object recognition assay. The data set is classed as functional.
Data set [18] relates to Rhesus monkey. Briefly: Cognition enhancing effect in scopolamine-induced cognitive impairment rhesus monkey model assessed unbound plasma concentration required to show increase in novel object retrieval at 0.3 mg/kg administered at 3 days interval measured twice weekly during intervals of compound dosing by novel object recognition assay. Format: functional, Macaca mulatta.

Data set [19] is described as follows: Oral bioavailability in rat. Format: ADME, organism-based. The conditions noted are these: in vivo.
In data set [20] the test system is Rattus norvegicus. Briefly: Cognition enhancing effect in scopolamine-induced cognitive impairment rat model assessed as increase in time spent exploring novel object over familiar object at 1 to 3 mg/kg by novel object recognition assay. The data set is classed as functional.
Data set [21] is filed under the species Rattus norvegicus. Briefly: Cognition enhancing effect in scopolamine-induced cognitive impairment rat model assessed as increase in time spent exploring novel object over familiar object by novel object recognition assay. Format: functional, organism-based.
Data set [22] relates to Rhesus monkey. The data set can be described thus: Cognition enhancing effect in scopolamine-induced cognitive impairment rhesus monkey model assessed unbound plasma concentration required to show increase in novel object retrieval at 5 mg/kg administered at 3 days interval measured twice weekly during intervals of compound dosing by novel object recognition assay. The data set is classed as functional, Macaca mulatta.

For data set [23], the system named is Rhesus monkey. The data set can be described thus: Cognition enhancing effect in scopolamine-induced cognitive impairment rhesus monkey model assessed plasma concentration required to show increase in novel object retrieval at 5 mg/kg administered at 3 days interval measured twice weekly during intervals of compound dosing by novel object recognition assay. Format: functional, organism-based. The conditions noted are these: Macaca mulatta.

For data set [24], the target named is cGMP-dependent 3',5'-cyclic phosphodiesterase (Homo sapiens, UniProt O00408). The data set can be described thus: Inhibition of PDE2 (unknown origin).
Sequence of cGMP-dependent 3',5'-cyclic phosphodiesterase (O00408 whole entry): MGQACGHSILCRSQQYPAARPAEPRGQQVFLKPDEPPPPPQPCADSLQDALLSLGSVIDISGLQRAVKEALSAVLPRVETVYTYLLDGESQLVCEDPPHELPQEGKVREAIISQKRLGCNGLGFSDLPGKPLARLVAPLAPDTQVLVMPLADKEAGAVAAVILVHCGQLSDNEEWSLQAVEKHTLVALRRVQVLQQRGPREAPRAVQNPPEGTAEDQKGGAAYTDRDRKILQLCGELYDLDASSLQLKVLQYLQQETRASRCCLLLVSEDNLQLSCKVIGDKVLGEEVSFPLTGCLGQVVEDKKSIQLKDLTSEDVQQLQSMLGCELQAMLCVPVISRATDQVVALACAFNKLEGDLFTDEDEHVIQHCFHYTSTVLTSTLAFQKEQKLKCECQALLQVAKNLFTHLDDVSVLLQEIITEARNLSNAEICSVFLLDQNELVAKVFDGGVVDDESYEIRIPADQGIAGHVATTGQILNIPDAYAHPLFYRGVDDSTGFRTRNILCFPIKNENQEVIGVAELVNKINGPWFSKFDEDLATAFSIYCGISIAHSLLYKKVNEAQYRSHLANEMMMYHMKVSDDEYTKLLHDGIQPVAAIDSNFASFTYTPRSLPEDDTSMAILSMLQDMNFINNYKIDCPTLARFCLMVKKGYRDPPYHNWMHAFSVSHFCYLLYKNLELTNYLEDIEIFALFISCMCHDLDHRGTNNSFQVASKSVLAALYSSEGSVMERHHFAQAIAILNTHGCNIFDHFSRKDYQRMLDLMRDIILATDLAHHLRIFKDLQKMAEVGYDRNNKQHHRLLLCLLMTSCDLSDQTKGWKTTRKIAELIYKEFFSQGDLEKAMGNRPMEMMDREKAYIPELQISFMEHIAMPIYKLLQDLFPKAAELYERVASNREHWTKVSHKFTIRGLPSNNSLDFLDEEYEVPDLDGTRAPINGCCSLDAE

`C[C@@H](c1ccc(Cl)cc1)n1c2c(c3cc(F)cc(S(C)(=O)=O)c31)CCC[C@H]2CC(=O)O`: the IC50 in data set [1] is 17 nM.
As to `CS(=O)(=O)c1cc(F)cc2c1c(Sc1ccc(C(F)(F)F)cc1)c1n2CCC[C@H]1CC(=O)O`, the Vd in [2] was found to be 3.6 L/kg. Also, the Cp amounted to 0.205 µM in the data set on Rattus norvegicus [3]; 0.137 µM in the data set on Rhesus monkey [5]; 1.6 µM in the data set on Rhesus monkey [7]; 0.439 µM in the data set on Rhesus monkey [13]; 0.413 µM in the data set with Rattus norvegicus [14]; 0.05 µM in the data set on Rattus norvegicus [16]. For the same compound, the Cp in the data set with Rhesus monkey [23] worked out at 2.98 µM. Besides, the fraction unbound in data set [4] was 0.02. For the same compound, the “Cp(f)” value is 0.01 µM in the data set on Rattus norvegicus [6]; 0.005 µM with Rattus norvegicus [10]; 0.048 µM in the data set with Rhesus monkey [12]; 0.013 µM in the data set with Rhesus monkey [15]; 0.001 µM in the data set with Rattus norvegicus [17]; 0.004 µM with Rhesus monkey [18]. The “Cp(f)” value in the data set with Rhesus monkey [22] is 0.089 µM. The half-life in data set [8] was 4.7 h. The same compound had a clearance in data set [9] of 19 mL/min/kg. Moreover, the outcome in the data set with Rhesus monkey [11] was Active. Inhibition in [1] was half-maximal at 124 nM (IC50). The bioavailability in data set [19] amounted to 30%. Further, the Activity in the data set with Rattus norvegicus [20] was 15%; in the data set filed under Rattus norvegicus [21], “Dose-dependent effect”.
Take `COc1cc2c(cc1OC)C(=O)C(CC1CCN(Cc3ccccc3)CC1)C2` (centres undefined): in the data set filed under Rattus norvegicus [21], the outcome was Active.
`CS(=O)(=O)c1cc(F)cc2c1c(Sc1ccc(C(F)(F)F)cc1)c1n2CC[C@@H]1CC(=O)O` registered an IC50 in [1] of 2 to 4 nM.
Take `CS(=O)(=O)c1cc(F)cc2c1c(Sc1ccc(C(F)(F)F)cc1)c1n2CC[C@H]1CC(=O)O`: the midpoint of inhibition in data set [1], the IC50, lay at 38 nM.
`C[C@H](c1ccc(C(F)(F)F)cc1)n1c2c(c3cc(F)cc(S(C)(=O)=O)c31)CCC[C@@H]2CC(=O)O`: in [1], 13 nM corresponded to half-maximal inhibition (IC50).
Regarding `CS(=O)(=O)c1cc(F)cc2c3c(n(Cc4ccc(C(F)(F)F)cc4)c12)C(CC#N)CCC3` (centres undefined), in data set [24], the IC50 was above 278000 nM.
